According to ChEMBL document CHEMBL1201862, “PubChem BioAssay data set” (2004):
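Tested at 5 concentrations; 48 h exposure; 96-well plates; endpoints linearly interpolated, else capped at highest concentration. Here, GI50 denotes the concentration required for 50% inhibition of growth.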 Calls of active or inactive are those of the source. Rule as the data show it: active = GI50 up to about 1.1 µM and inactive = higher.

What was measured:
Assay in all cases: NCI-60 cell line screen, 48 h
ACHN = test system: ACHN
SNB-19 = test system: SNB-19
SF-295 = test system: SF-295
OVCAR-5 = test system: OVCAR-5
HOP-92 = test system: HOP-92
KM12 = test system: KM12
Hs-578T = test system: Hs-578T
MOLT-4 = test system: MOLT-4
EKVX = test system: EKVX
M14 = test system: M14
A498 = test system: A498
HOP-62 = test system: HOP-62
CAKI-1 = test system: CAKI-1
A549 = test system: A549
MDA-N = test system: MDA-N
OVCAR-4 = test system: OVCAR-4
MCF7 = test system: MCF7
K562 = test system: K562
HL-60 = test system: HL-60

Measured: GI50

O=C(O)Cn1cnc2c(O)nc(Nc3ccccc3)nc21
inactive: ACHN > 100 µM | SNB-19 > 100 µM | SF-295 > 100 µM | OVCAR-5 > 100 µM | HOP-92 > 100 µM | KM12 > 100 µM | Hs-578T > 100 µM | MOLT-4 > 100 µM | EKVX > 100 µM | M14 > 100 µM | A498 > 100 µM | HOP-62 > 100 µM | CAKI-1 > 100 µM | A549 > 100 µM | MDA-N > 100 µM | OVCAR-4 > 100 µM | MCF7 > 100 µM

O=C(O)C(Cc1ccccc1-c1ccccc1)C(=O)O
inactive: ACHN > 100 µM | SNB-19 > 100 µM | SF-295 86.7 µM | K562 > 100 µM | OVCAR-5 > 100 µM | HOP-92 > 100 µM | KM12 > 100 µM | Hs-578T > 100 µM | MOLT-4 > 100 µM | EKVX > 100 µM | M14 > 100 µM | A498 > 100 µM | CAKI-1 > 100 µM | A549 > 100 µM | MDA-N > 100 µM | OVCAR-4 > 100 µM | MCF7 > 100 µM

C(#C[C@@]12CCC[C@@H]1N(Cc1ccccc1)CO2)c1ccc2c(c1)OCO2
inactive: ACHN > 100 µM | SNB-19 > 100 µM | SF-295 > 100 µM | K562 > 100 µM | OVCAR-5 > 100 µM | KM12 > 100 µM | Hs-578T 65 µM | MOLT-4 > 100 µM | EKVX > 100 µM | M14 > 100 µM | A498 > 100 µM | HOP-62 > 100 µM | CAKI-1 > 100 µM | A549 > 100 µM | MDA-N > 100 µM | OVCAR-4 > 100 µM | MCF7 > 100 µM

N#Cc1c(N2CCCC2)nsc1Nc1ccccc1
inactive: ACHN > 100 µM | SNB-19 > 100 µM | SF-295 > 100 µM | K562 > 100 µM | OVCAR-5 > 100 µM | HOP-92 > 100 µM | KM12 > 100 µM | Hs-578T > 100 µM | HL-60 > 100 µM | MOLT-4 > 100 µM | EKVX > 100 µM | M14 > 100 µM | A498 > 100 µM | CAKI-1 > 10 µM | A549 > 100 µM | MDA-N > 100 µM | OVCAR-4 > 100 µM

C=C(C)COC(=O)COCC(=O)OCC(=C)C
inactive: ACHN > 100 µM | SNB-19 > 100 µM | SF-295 > 100 µM | K562 > 100 µM | OVCAR-5 > 100 µM | HOP-92 > 100 µM | KM12 > 100 µM | Hs-578T > 100 µM | MOLT-4 > 100 µM | EKVX > 100 µM | M14 > 100 µM | A498 > 100 µM | HOP-62 > 100 µM | CAKI-1 > 100 µM | A549 > 100 µM | MDA-N > 100 µM | OVCAR-4 > 100 µM | MCF7 > 100 µM

CCN(CC)c1ccc2cc(-c3csc(-c4ccc(N(C)C)cc4)n3)c(=O)oc2c1
inactive: ACHN > 100 µM | SNB-19 > 100 µM | SF-295 > 100 µM | K562 > 100 µM | OVCAR-5 > 100 µM | HOP-92 > 100 µM | KM12 67.9 µM | Hs-578T > 100 µM | HL-60 > 100 µM | MOLT-4 > 100 µM | EKVX > 100 µM | M14 > 100 µM | HOP-62 > 100 µM | CAKI-1 > 100 µM | A549 > 100 µM | MDA-N > 100 µM | OVCAR-4 > 100 µM | MCF7 > 100 µM

CN(Cc1c[n+]([O-])c2nc(N)nc(N)c2n1)c1ccc(C(=O)NC23CC4CC(CC(C4)C2)C3)cc1
inactive: ACHN > 100 µM | SNB-19 92.7 µM | SF-295 > 100 µM | K562 48.9 µM | OVCAR-5 > 100 µM | KM12 > 100 µM | Hs-578T 10.6 µM | HL-60 31 µM | MOLT-4 32.7 µM | EKVX > 100 µM | M14 > 100 µM | A498 13.5 µM | HOP-62 > 100 µM | CAKI-1 > 100 µM | MDA-N 70.6 µM | MCF7 47.8 µM

[N-]=[N+]=Nc1c(Cl)c(Cl)nc2ccccc12
inactive: ACHN 91.4 µM | SNB-19 > 100 µM | SF-295 82.8 µM | K562 81.3 µM | OVCAR-5 > 100 µM | HOP-92 35.3 µM | KM12 > 100 µM | Hs-578T 61.8 µM | MOLT-4 32.7 µM | EKVX 92.7 µM | M14 > 100 µM | A498 81.5 µM | HOP-62 > 100 µM | CAKI-1 21.2 µM | A549 > 100 µM | MDA-N > 100 µM | OVCAR-4 85.7 µM | MCF7 54.5 µM

Cc1c/c(=N\c2ccc3c(c2)c(N)cc(C)[n+]3C)nc(N)n1C
inactive: ACHN > 100 µM | SNB-19 > 100 µM | SF-295 > 100 µM | K562 > 100 µM | OVCAR-5 > 100 µM | HOP-92 > 100 µM | KM12 > 100 µM | Hs-578T > 100 µM | MOLT-4 > 100 µM | EKVX > 100 µM | M14 > 100 µM | A498 > 100 µM | HOP-62 87.7 µM | CAKI-1 > 100 µM | A549 > 100 µM | MDA-N > 100 µM | OVCAR-4 > 100 µM | MCF7 > 100 µM

COc1ccc(C(O)c2ccccn2)cc1 (stereo not given)
inactive: ACHN > 100 µM | SNB-19 > 100 µM | SF-295 > 100 µM | K562 > 100 µM | OVCAR-5 > 100 µM | HOP-92 > 100 µM | KM12 > 100 µM | Hs-578T > 100 µM | MOLT-4 > 100 µM | EKVX > 100 µM | M14 > 100 µM | A498 > 100 µM | HOP-62 > 100 µM | CAKI-1 > 100 µM | A549 > 100 µM | MDA-N > 100 µM | OVCAR-4 > 100 µM | MCF7 > 100 µM

Clc1ccc(OCC2NC3C=CC32)cn1 (stereo not given)
inactive: ACHN > 100 µM | SNB-19 > 100 µM | SF-295 > 100 µM | K562 59.3 µM | OVCAR-5 > 100 µM | HOP-92 67 µM | KM12 > 100 µM | Hs-578T > 100 µM | HL-60 > 100 µM | MOLT-4 56 µM | EKVX 24.9 µM | M14 > 100 µM | HOP-62 > 100 µM | CAKI-1 > 100 µM | A549 > 100 µM | MDA-N > 100 µM | OVCAR-4 > 100 µM | MCF7 55 µM

O=[N+]([O-])c1ccc(O)c(/C=N/CC2CCCN3CCCCC23)c1 (stereo not given)
inactive: ACHN 26.9 µM | SNB-19 25.1 µM | SF-295 31.2 µM | OVCAR-5 31.7 µM | KM12 37.7 µM | Hs-578T 16.9 µM | EKVX 31.4 µM | M14 19.6 µM | HOP-62 83.4 µM | CAKI-1 57.7 µM | A549 91.4 µM | MDA-N 44.8 µM | MCF7 46.8 µM
